Holding throughout (format): in vivo
In one test the test system is growth hormone (GH). The test can be described thus: Arginine-stimulated growth hormone (GH) in Nembutal-treated rats, radioimmunoassay. Details: GH: reference not given here. The following applies: for GH: albino male rats, *p<0.01. The protocol:
(§1) The biological activity of the peptides of Examples 2 and 4 were determined by the following procedure:
(§2) Albino male rats are administered Nembutal intraperitoneally at a dose of 50 milligrams per kilogram. Fifteen minutes later a subcutaneous injection of the test compound of physiological saline is administered. Ten minutes later 0.5 milliliters of arginine (300 milligrams per milliliter, pH 7.2) is injected into the heart. Five minutes after receipt of the arginine the rats are decapitated and blood is collected into trasylol-EDTA. An appropriate aliquot is assayed for growth hormone (GH), insulin, and glucagon by radioimmunoassay.

A further test has as its system glucagon. Kind of test: Arginine-stimulated glucagon in Nembutal-treated rats, radioimmunoassay. The following applies: for Glucagon: albino male rats, *p<0.01. The protocol:
as §1, §2

For another test, the system named is insulin. Kind of test: Arginine-stimulated insulin in Nembutal-treated rats, radioimmunoassay. Details: effect on insulin levels: dose or concentration left out as unconfirmed. The conditions noted are these: for Insulin: albino male rats. The procedure:
as §1, §2

A further test relates to GH secretion. The test can be described thus: Duration of effect on GH secretion in rats treated with Nembutal. Details: duration of significant inhibition of GH: dose or concentration left out as unconfirmed. The procedure:
The peptides of Examples 2 and 4 were also tested for duration of their effect on GH secretion in rats treated with Nembutal.

[1] abbreviates: dose 200 ug/kg subcutaneous, blood 15 min after compound, 5 min after arginine.
Setting [2] is: dose 200 ug/kg subcutaneous, blood 15 min after compound, 5 min after arginine, *p<0.01.

Like-named read-outs stand apart in the source and are kept apart here. Bridge positions count the residues as written; N and C are the ends. Square brackets hold non-standard residues; d marks the D form. Peptide text beside a SMILES is read from it.

For `C[C@@H](O)[C@@H]1NC(=O)[C@H](Cc2ccccc2)NC(=O)[C@H]([C@@H](C)O)NC(=O)[C@H](CCCCN)NC(=O)[C@@H](Cc2c[nH]c3ccccc23)NC(=O)[C@H](Cc2ccccc2)NC(=O)[C@H](Cc2ccccc2)NC(=O)[C@H](CCC(=O)O)NC(=O)[C@H](CCCNC(=N)N)NC(=O)[C@@H](N)CSSC[C@@H](C(=O)O)NC(=O)[C@H](CO)NC1=O` [Example 2, L-Cysteinyl-L-arginyl-L-glutamyl-L-phenylalanyl-L-phenylalanyl-D-tryptophyl-L-lysyl-L-threonyl-L-phenylalanyl-L-threonyl-L-seryl-L-cysteine cyclic (1-12) disulfide] (H-CREFF[dW]KTFTSC-OH; disulfide 1-12), the GH was 28 ± 5 ng/mL in the test on growth hormone (GH) (dose 40 ug/kg subcutaneous) and 42 ± 6 ng/mL in the test on growth hormone (GH) (setting [1]). In addition, the reducing growth hormone result in the test with growth hormone (GH) (dose of 40 mg/kg) is given as “effective agents for reducing growth hormone”. For the same compound, the Glucagon with glucagon (dose 40 ug/kg subcutaneous) came to 12 ± 2 pg/mL; in the test with glucagon (setting [1]), 1.5 ± 1 pg/mL. Further, the reducing glucagon result in the test with glucagon (dose of 40 mg/kg) was “effective agents for reducing growth hormone and glucagon”. The Insulin is on record as 158 ± 57 μU/ml with insulin (dose 40 ug/kg subcutaneous) and 115 ± 16 μU/ml with insulin (setting [2]). Further, in the test on insulin (dose of 40), the “effect on insulin levels” value was “without materially affecting insulin levels”.

Take `C[C@@H](O)[C@@H]1NC(=O)[C@H](Cc2ccccc2)NC(=O)[C@H]([C@@H](C)O)NC(=O)[C@H](CCCCN)NC(=O)[C@@H](Cc2c[nH]c3ccccc23)NC(=O)[C@H](Cc2ccccc2)NC(=O)[C@H](Cc2ccccc2)NC(=O)[C@H](CCC(=O)O)NC(=O)[C@H](Cc2c[nH]cn2)NC(=O)[C@@H](N)CSSC[C@@H](C(=O)O)NC(=O)[C@H](CO)NC1=O` [Example 4, L-Cysteinyl-L-histidyl-L-glutamyl-L-phenylalanyl-L-phenylalanyl-D-tryptophyl-L-lysyl-L-threonyl-L-phenylalanyl-L-threonyl-L-seryl-L-cysteine cyclic (1-12) disulfide] (H-CHEFF[dW]KTFTSC-OH; disulfide 1-12): the GH in the test with growth hormone (GH) (dose 50 ug/kg subcutaneous) came to 84 ± 17 ng/mL; in the test with growth hormone (GH) (setting [1]), 107 ± 29 ng/mL. Besides, the reducing growth hormone entry with growth hormone (GH) (dose of 50 mg/kg) was “effective agents for reducing growth hormone”. In the test on glucagon, the reducing glucagon result was “effective agents for reducing growth hormone and glucagon”. Also, the Glucagon in the test on glucagon (dose 50 ug/kg subcutaneous) came to 10 ± 4 pg/mL; with glucagon (setting [1]), 4 ± 2 pg/mL. Further, the figures for the Insulin in the test with insulin (dose 50 ug/kg subcutaneous) and in the test with insulin (setting [2]) were 322 ± 40 μU/ml and 205 ± 36 μU/ml, respectively. Also, in the test on insulin (dose of 50), the “effect on insulin levels” value is given as “without materially affecting insulin levels”. For the same compound, in the test with GH secretion (at 2 and 4 hours), the “inhibition of GH at 2 and 4 hours” value is “no significant inhibition of GH”.

Consider “tert-Butyloxycarbonyl-S-p-methoxybenzyl-L-cysteinyl-N^gn -tosyl-L-arginyl-γ-benzyl-L-glutamyl-L-phenylalanyl-L-phenylalanyl-D-tryptophyl-N^ε -2-chloro-benzyloxycarbonyl-L-lysyl-O-benzyl-L-threonyl-L-phenylalanyl-O-benzyl-L-threonyl-O-benzyl-L-seryl-S-p-methoxybenzyl-L-cysteine hydroxymethyl-polystyrene ester [Example 1]”, for which the “duration of significant inhibition of GH” value with GH secretion ((S.C.)) is reported as “at least 4 hours”.

The record behind these values is patent publication US4190575A, “Polypeptides related to somatostatin” (American Home Products Corporation, priority 1977, dated 1980).
